What follows are compounds tested against Peptidyl-prolyl cis-trans isomerase FKBP1A (Homo sapiens, UniProt P62942, F36V) (assay: Binding affinity for Mutant F36V-FK506 binding protein by competitive assay based on fluorescence polarization.).
Chain of Peptidyl-prolyl cis-trans isomerase FKBP1A (P62942 2-108 F37V limits assumed): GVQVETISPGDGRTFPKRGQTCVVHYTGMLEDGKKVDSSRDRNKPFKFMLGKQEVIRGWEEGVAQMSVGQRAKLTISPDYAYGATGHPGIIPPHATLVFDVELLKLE
Compound `CC[C@H](C(=O)N1CCCC[C@H]1C(=O)O[C@H](CCc1ccc(OC)c(OC)c1)c1cccc(OCC(=O)O)c1)c1ccccc1` has an IC50 of 40 nM. Work on `CC[C@H](C(=O)N1CCCC[C@H]1C(=O)O[C@H](CCc1ccc(OC)c(OC)c1)c1cccc(OCC(=O)O)c1)c1cc(OC)c(OC)c(OC)c1` yielded an IC50 of 1.8 nM. `C=CC[C@@H](C(=O)N1CCCC[C@H]1C(=O)OC(CCc1ccc(OC)c(OC)c1)c1cccc(OCC(=O)O)c1)c1cc(OC)c(OC)c(OC)c1` (stereo partly drawn) was tested, and the IC50 was 19 nM. With `COc1ccc(CCC(OC(=O)[C@@H]2CCCCN2C(=O)[C@@H](C)c2ccccc2)c2cccc(OCC(=O)O)c2)cc1OC` (stereo partly drawn) the IC50 was 94 nM. Compound `CCC[C@H](C(=O)N1CCCC[C@H]1C(=O)OC(CCc1ccc(OC)c(OC)c1)c1cccc(OCC(=O)O)c1)c1cc(OC)c(OC)c(OC)c1` (stereo partly drawn) has an IC50 of 3.8 nM. `COc1ccc(CCC(OC(=O)[C@@H]2CCCCN2C(=O)[C@H](CC2CC2)c2cc(OC)c(OC)c(OC)c2)c2cccc(OCC(=O)O)c2)cc1OC` (stereo partly drawn) gave an IC50 of 126 nM. For `COc1ccc(CCC(OC(=O)[C@@H]2CCCCN2C(=O)[C@H](c2ccccc2)C(C)C)c2cccc(OCC(=O)O)c2)cc1OC` (stereo partly drawn), the IC50 was 150 nM. Compound `CC[C@@H](C(=O)N1CCCC[C@H]1C(=O)OC(CCc1ccc(OC)c(OC)c1)c1cccc(OCC(=O)O)c1)c1ccccc1` (stereo partly drawn) has an IC50 of 133 nM. Compound `COc1ccc(CCC(OC(=O)[C@@H]2CCCCN2C(=O)[C@@H](c2cc(OC)c(OC)c(OC)c2)C(C)C)c2cccc(OCC(=O)O)c2)cc1OC` (stereo partly drawn) has an IC50 of 65 nM. In the case of `COc1ccc(CCC(OC(=O)[C@@H]2CCCCN2C(=O)[C@@H](CC2CC2)c2cc(OC)c(OC)c(OC)c2)c2cccc(OCC(=O)O)c2)cc1OC` (stereo partly drawn), the IC50 is reported as 4.4 nM. `CCC[C@@H](C(=O)N1CCCC[C@H]1C(=O)OC(CCc1ccc(OC)c(OC)c1)c1cccc(OCC(=O)O)c1)c1cc(OC)c(OC)c(OC)c1` (stereo partly drawn) showed an IC50 of 43 nM. `COc1ccc(CCC(OC(=O)[C@@H]2CCCCN2C(=O)[C@H](c2cc(OC)c(OC)c(OC)c2)C(C)C)c2cccc(OCC(=O)O)c2)cc1OC` (stereo partly drawn) was tested, and the IC50 was 5.8 nM. `COc1ccc(CCC(OC(=O)[C@@H]2CCCCN2C(=O)[C@@H](c2ccccc2)C(C)C)c2cccc(OCC(=O)O)c2)cc1OC` (stereo partly drawn) showed an IC50 of 19 nM. Work on `C=CC[C@H](C(=O)N1CCCC[C@H]1C(=O)OC(CCc1ccc(OC)c(OC)c1)c1cccc(OCC(=O)O)c1)c1cc(OC)c(OC)c(OC)c1` (stereo partly drawn) yielded an IC50 of 1.5 nM. Work on `COc1ccc(CC[C@@H](OC(=O)[C@@H]2CCCCN2C(=O)Cc2ccccc2)c2cccc(OCC(=O)O)c2)cc1OC` yielded an IC50 of 1530 nM. `COc1ccc(CCC(OC(=O)[C@@H]2CCCCN2C(=O)[C@H](C)c2ccccc2)c2cccc(OCC(=O)O)c2)cc1OC` (stereo partly drawn) gave an IC50 of 590 nM. `CC[C@@H](C(=O)N1CCCC[C@H]1C(=O)OC(CCc1ccc(OC)c(OC)c1)c1cccc(OCC(=O)O)c1)c1cc(OC)c(OC)c(OC)c1` (stereo partly drawn) was tested, and the IC50 was 187 nM. Work on `COc1ccc(CCC(OC(=O)[C@@H]2CCCCN2C(=O)C(c2ccccc2)c2ccccc2)c2cccc(OCC(=O)O)c2)cc1OC` (stereo partly drawn) yielded an IC50 of 273 nM.
